Source: paper PMC6609034, “Unraveling the role of the secretor antigen in human rotavirus attachment to histo-blood group antigens” (PLoS Pathogens, 2019)

System: rotavirus Wa strain (G1P[8]) in MA104 cells
Test: Blocking of rotavirus infection in MA104 cells (fluorescent focus assay)
Type: cell-based, human rotavirus
Details: sugar at 5 mg/mL
Method: The G1P[8] Wa strain was tested on MA104 cells. The sugars LNB, GNB, GlcNAc, GalNAc, D-galactose and L-fucose were tested for their effect on rotavirus infectivity. The oligosaccharides were previously heat sterilized at 99°C for 10 min and then dissolved in serum-free DMEM containing 1 μg/ml trypsin. Serum-free DMEM containing […] oligosaccharide was used as a control in each experiment.
The effect of different mono- and disaccharides on rotavirus infectivity was assessed through standard fluorescent focus assays on MA104 cells. The dilution of Wa virus stocks that yielded ~150 focus-forming units/well was first established. Then, sugars were added during virus inoculation at a final concentration of 5 mg/ml, incubated for 1 hour, and unbound virus was removed by washing with FBS-DMEM. The cells were allowed to be infected for 16h, washed once with PBS and fixed with 100% methanol. A mouse anti-VP6 primary antibody (1:50 dilution in PBS containing 3% BSA) was added and incubation proceeded for 30 min at room temperature with gentle rotation. […] Individual fluorescence foci were counted on an inverted fluorescence microscope with a FITC-compatible filter. […] Virus titer measured in the absence of oligosaccharides was considered to be 100% infectivity, and changes in virus titer in the presence of sugars were expressed as percentage of infectivity compared with no sugar treatment.

With CC(=O)NC1C(O)OC(CO)C(O)C1OC1OC(CO)C(O)C(O)C1O (stereo not drawn) [LNB, Gal-β1,3-GlcNAc] the “reduction of viral infection” value was 33%.
